Measured values published in paper PMC6271273, “Chemo-Enzymatic Synthesis of Silybin and 2,3-Dehydrosilybin Dimers” (Molecules, 2014).
Marks after values point to notes of the source that are not given here.

Legend:
[1] = DPPH radical scavenging assay; format: biochemical; conditions: 33 µM test compound, n = 4, absorbance at 517 nm after 30 min
Description: Antiradical activity was evaluated spectrophotometrically as the ability of the tested substances to reduce the 1,1-diphenyl-2-picrylhydrazyl (DPPH) radical as described previously with minor modifications. Briefly, a solution of the tested substance (10 µL, final concentration 0–540 µM) were mixed with a freshly prepared methanolic DPPH solution (290 µL, final concentration 20 µM) in a microtiter plate well. After 30 min, absorbance at 517 nm was measured, percentages of inhibition were calculated using the negative control and for selected compounds the IC50 values were obtained from the inhibition curves.

[2] = Stability of dimers in buffers, HPLC; format: physicochemical; conditions: PBS and phosphate buffers (0.2 M, pH 7.4), longer than 24 h
Description: The stability of the dimers in PBS buffer and phosphate buffer (0.2 M, pH 7.4) was monitored using an HPLC method. […] The chromatography was carried out in a Shimadzu Prominence UFLC system (Kyoto, Japan) consisting of a DGU-20A mobile phase degasser, two LC-20AD solvent delivery units, SIL-20ACHT cooling autosampler, CTO-10AS column oven and SPD-M20A (PDA, photodiode array detector). A Chromolith Performance RP-18e monolithic column (100 × 3 mm i.d.) and guard column (5 × 4.6 mm i.d., both Merck) were used. The PDA data were acquired in the 200–450 nm range and the 285 signal was extracted. Gradient elution: mobile phase A: 0.1% formic acid, 10% methanol in water (v/v/v); mobile phase B: 0.1% formic acid in methanol (v/v); gradient, 0–1 min, 20% B; 1–8 min, 20%–90% B; 8–9 min, 90% B, 9–10 min, 90%–20% B. The flow rate was 1.2 mL/min at 25 °C.

[3] = Square wave voltammetry (in situ / ex situ) at pyrolytic graphite electrode; format: physicochemical; conditions: SWV, vs. Ag/AgCl/3 M KCl, pH 7.4, n = 3; for Oxidation potential Ep1: ascribed to oxidation of C-20 OH; for Oxidation potential Ep2: oxidation of resorcinol moiety (ring A)
Description: The monomeric flavonolignans and their dimers were analyzed using in situ voltammetry with the working electrode (PGE: pyrolytic graphite electrode) dipped in the supporting electrolyte containing the analytes and/or ex situ voltammetric analysis (adsorptive transfer, AdT technique). For this purpose, the PGE was first dipped into a 5 µL aliquot of the studied sample. After an accumulation period (30 s), the electrode was washed with deionized water and placed in an electrochemical cell containing pure supporting electrolyte. Square-wave voltammetry (SWV) and cyclic voltammetry (CV) were performed at room temperature with a µAutolab III analyzer (EcoChemie, Utrecht, The Netherlands) in a three-electrode setup (Ag/AgCl 3M KCl electrode as a reference and a platinum wire as the auxiliary electrode). SWV parameters: frequency: 200 Hz, from 0 V to +1.5 V, concentration of tested compounds (50 µM), supporting electrolyte: Britton-Robinson buffer, pH 7.4. The flavonolignans analyzed were dissolved in methanol as a stock solution of 1 mg mL^−1 (stored in a fridge in the dark), and diluted with the supporting electrolyte and/or 0.2 M acetate buffer (pH 5) for in situ and/or ex situ voltammetry. Ex situ a.c. voltammetry (out-of-phase) was carried out with a hanging mercury drop electrode (HMDE) according to the previously published paper. In this case, the flavonolignans (50 µM) were adsorbed from 0.2 M acetate buffer (pH 5) for 30 s. For current responses and potentials (Ep), the standard deviations (S.D.) were less than ±3.55% and ±3 mV for all experiments, respectively.

Stability during longer incubation [2] | Oxidation potential Ep1 [3] | Oxidation potential Ep2 [3] | SMILES | DPPH [% of inhibition] [1]
signs of instability (decomposition) | 0.57 V | 0.83 V | COc1cc([C@@H]2Oc3cc([C@H]4Oc5cc(O)cc(O)c5C(=O)[C@@H]4O)ccc3O[C@H]2COC(=O)CCCCCCCCCCC(=O)OC[C@@H]2Oc3ccc([C@H]4Oc5cc(O)cc(O)c5C(=O)[C@@H]4O)cc3O[C@H]2c2ccc(O)c(OC)c2)ccc1O [Compound 4, bis(((2S,3S)-3-(4-Hydroxy-3-methoxyphenyl)-6-((2R,3R)-3,5,7-trihydroxy-4-oxochroman-2-yl)-2,3-dihydrobenzo[b][1,4]dioxin-2-yl)methyl) dodecanedioate] | 9.0 ± 3.0 ^a %
signs of instability (decomposition) | 0.55 V | 0.83 V | COc1cc([C@H]2Oc3cc([C@H]4Oc5cc(O)cc(O)c5C(=O)[C@@H]4O)ccc3O[C@@H]2COC(=O)CCCCCCCCCCC(=O)OC[C@@H]2Oc3ccc([C@H]4Oc5cc(O)cc(O)c5C(=O)[C@@H]4O)cc3O[C@H]2c2ccc(O)c(OC)c2)ccc1O [Compound 5, 1-(((2R,3R)-3-(4-Hydroxy-3-methoxyphenyl)-6-((2R,3R)-3,5,7-trihydroxy-4-oxochroman-2-yl)-2,3-dihydrobenzo[b][1,4]dioxin-2-yl)methyl) 12-(((2S,3S)-3-(4-hydroxy-3-methoxyphenyl)-6-((2R,3R)-3,5,7-trihydroxy-4-oxochroman-2-yl)-2,3-dihydrobenzo[b][1,4]dioxin-2-yl)methyl) dodecanedioate] | 7.0 ± 2.9 ^a %
